Data on 7 molecules can be found in ChEMBL document CHEMBL3714760, “Substituted pyrrolo[2,3b]pyrazines and methods for treatment of raf protein kinase-mediated indications” (2012).

The target of test [1] is Serine/threonine-protein kinase B-raf (Homo sapiens, UniProt P15056). Briefly: Inhibition of N-terminal GST-tagged human recombinant B-Raf (416 to end residues) using biotin-MEKl substrate incubated for 1 hr.
The target of test [2] is T1, Serine/threonine-protein kinase A-Raf (Homo sapiens, UniProt P10398).
T1 sequence (P10398 whole entry): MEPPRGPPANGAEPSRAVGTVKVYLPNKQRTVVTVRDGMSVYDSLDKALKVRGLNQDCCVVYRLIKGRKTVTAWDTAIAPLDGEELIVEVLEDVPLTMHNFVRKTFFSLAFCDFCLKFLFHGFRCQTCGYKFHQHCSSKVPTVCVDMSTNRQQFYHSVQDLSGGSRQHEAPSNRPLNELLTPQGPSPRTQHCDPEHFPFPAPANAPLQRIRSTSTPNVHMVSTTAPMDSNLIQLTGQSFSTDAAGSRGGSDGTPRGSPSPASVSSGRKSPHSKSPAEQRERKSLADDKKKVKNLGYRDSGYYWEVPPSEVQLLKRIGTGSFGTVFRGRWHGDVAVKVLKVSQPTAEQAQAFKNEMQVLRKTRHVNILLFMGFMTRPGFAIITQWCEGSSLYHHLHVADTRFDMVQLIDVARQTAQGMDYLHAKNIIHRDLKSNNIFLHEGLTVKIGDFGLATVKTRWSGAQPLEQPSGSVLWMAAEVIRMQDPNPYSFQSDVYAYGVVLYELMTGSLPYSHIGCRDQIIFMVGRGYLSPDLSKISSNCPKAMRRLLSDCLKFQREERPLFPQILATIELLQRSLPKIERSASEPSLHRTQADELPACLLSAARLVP
Nature of the test: Inhibition of A-raf (unknown origin).

For test [3], the target named is RAF proto-oncogene serine/threonine-protein kinase (Homo sapiens, UniProt P04049). Nature of the test: Inhibition of human C-raf using biotin-MEKl substrate incubated for 1 hr.
Chain of RAF proto-oncogene serine/threonine-protein kinase (P04049 whole entry): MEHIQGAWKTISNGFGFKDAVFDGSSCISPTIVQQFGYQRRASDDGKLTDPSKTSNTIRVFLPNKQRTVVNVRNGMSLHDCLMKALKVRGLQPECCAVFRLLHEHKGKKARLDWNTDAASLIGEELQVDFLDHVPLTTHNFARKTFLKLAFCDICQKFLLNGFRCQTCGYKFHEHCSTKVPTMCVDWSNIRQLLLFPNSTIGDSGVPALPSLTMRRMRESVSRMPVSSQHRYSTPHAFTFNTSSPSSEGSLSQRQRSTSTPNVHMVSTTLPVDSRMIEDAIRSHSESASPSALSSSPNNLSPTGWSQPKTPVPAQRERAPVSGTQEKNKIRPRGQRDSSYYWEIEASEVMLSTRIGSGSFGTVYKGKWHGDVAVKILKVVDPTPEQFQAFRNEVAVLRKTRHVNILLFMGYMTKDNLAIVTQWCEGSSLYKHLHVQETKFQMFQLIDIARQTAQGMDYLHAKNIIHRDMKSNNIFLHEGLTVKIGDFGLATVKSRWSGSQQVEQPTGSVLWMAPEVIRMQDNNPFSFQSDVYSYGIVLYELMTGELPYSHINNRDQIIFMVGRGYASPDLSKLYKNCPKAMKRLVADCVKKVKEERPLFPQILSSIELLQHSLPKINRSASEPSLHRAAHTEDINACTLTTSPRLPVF
In test [4] the target is Vascular endothelial growth factor receptor 2 (Homo sapiens, UniProt P35968). Briefly: Inhibition of KDR (unknown origin).
Chain of Vascular endothelial growth factor receptor 2 (P35968 whole entry): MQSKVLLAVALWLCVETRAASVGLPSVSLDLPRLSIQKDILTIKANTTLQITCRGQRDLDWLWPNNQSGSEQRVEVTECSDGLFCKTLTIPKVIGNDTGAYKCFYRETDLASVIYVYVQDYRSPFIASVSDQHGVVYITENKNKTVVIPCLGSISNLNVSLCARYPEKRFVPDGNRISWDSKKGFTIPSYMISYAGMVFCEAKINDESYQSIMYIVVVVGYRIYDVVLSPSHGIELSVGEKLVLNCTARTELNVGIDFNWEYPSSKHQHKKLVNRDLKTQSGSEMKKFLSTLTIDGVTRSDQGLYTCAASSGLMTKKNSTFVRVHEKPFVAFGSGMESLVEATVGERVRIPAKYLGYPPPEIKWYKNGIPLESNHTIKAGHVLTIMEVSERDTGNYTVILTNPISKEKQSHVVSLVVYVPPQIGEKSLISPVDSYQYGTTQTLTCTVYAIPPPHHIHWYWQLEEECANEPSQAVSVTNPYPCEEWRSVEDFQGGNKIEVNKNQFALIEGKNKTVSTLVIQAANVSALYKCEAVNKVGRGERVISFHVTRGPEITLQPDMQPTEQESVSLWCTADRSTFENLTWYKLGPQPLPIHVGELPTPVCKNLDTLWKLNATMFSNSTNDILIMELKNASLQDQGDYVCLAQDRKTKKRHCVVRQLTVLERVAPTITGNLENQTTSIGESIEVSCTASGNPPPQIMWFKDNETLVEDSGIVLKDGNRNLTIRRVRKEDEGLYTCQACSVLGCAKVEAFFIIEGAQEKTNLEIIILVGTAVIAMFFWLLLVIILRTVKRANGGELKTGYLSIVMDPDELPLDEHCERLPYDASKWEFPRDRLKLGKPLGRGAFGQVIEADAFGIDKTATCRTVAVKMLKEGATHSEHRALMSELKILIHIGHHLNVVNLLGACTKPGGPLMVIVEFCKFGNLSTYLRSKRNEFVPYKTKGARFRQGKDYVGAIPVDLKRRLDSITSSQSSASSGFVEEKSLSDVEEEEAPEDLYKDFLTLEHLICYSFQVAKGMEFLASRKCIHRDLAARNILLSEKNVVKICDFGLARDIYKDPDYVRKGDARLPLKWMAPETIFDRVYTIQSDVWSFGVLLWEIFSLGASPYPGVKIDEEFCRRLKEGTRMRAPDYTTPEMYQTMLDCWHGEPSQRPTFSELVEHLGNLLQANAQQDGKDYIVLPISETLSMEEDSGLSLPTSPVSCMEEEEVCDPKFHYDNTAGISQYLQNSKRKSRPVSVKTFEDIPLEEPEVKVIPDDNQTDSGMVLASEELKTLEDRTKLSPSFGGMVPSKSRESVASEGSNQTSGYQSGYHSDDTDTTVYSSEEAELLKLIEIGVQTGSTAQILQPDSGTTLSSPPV
Test [5] has as its target Proto-oncogene tyrosine-protein kinase Src (Homo sapiens, UniProt P12931). Nature of the test: Inhibition of Src (unknown origin) expressed in Escherichia coli using biotin-(E4Y)3 substrate.

Chain of Serine/threonine-protein kinase B-raf (P15056 whole entry): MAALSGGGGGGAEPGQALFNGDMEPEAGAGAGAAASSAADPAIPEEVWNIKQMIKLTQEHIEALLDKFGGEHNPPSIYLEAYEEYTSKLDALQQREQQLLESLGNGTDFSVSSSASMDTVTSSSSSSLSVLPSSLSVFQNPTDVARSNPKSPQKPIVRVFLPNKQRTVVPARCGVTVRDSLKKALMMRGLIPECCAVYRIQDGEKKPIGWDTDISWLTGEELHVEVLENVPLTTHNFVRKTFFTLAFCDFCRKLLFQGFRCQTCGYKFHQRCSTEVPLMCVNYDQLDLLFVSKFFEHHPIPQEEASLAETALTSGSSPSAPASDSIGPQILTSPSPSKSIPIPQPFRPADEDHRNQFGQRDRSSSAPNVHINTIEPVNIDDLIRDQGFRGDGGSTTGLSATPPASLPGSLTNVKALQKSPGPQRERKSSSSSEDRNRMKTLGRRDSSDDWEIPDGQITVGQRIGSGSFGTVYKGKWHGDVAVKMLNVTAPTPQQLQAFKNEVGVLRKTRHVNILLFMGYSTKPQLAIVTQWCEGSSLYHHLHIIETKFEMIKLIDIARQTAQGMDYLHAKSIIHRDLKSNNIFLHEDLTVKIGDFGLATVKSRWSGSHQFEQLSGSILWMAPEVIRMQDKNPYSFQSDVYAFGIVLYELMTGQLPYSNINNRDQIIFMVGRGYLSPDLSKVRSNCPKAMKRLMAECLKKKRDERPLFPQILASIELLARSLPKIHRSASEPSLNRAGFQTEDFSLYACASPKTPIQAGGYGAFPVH
Chain of Proto-oncogene tyrosine-protein kinase Src (P12931 2-536 limits assumed): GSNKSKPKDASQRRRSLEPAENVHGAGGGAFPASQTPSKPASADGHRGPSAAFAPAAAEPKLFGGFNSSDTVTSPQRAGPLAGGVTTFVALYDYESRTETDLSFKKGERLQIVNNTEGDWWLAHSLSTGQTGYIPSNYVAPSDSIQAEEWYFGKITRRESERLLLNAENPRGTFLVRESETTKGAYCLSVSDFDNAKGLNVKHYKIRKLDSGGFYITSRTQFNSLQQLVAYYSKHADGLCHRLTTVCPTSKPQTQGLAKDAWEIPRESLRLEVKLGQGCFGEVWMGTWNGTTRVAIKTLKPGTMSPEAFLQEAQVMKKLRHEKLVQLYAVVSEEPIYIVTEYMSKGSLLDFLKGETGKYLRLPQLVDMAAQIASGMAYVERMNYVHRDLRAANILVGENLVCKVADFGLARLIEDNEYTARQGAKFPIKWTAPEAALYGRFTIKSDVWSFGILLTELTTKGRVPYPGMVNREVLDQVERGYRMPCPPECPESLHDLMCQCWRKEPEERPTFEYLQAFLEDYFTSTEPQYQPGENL

As to `CCCS(=O)(=O)Nc1ccc(F)c(C(=O)c2c[nH]c3nccnc23)c1F`, the half-inhibitory concentration (IC50) in test [1], in test [2] and in test [3] was not above 10 µM each time.

As to `O=C(c1c(F)ccc(NS(=O)(=O)c2ccc(C(F)(F)F)cc2)c1F)c1c[nH]c2nccnc12`, the 50% inhibitory concentration (IC50) in test [2] and in test [3] was not above 10 µM throughout.

Consider `CCCS(=O)(=O)Nc1ccc(F)c(C(=O)c2c[nH]c3ncc(-c4cnn(C)c4)nc23)c1F`, for which the half-inhibitory concentration (IC50) in test [4] and in test [5] was not above 10 µM throughout.

`CCCS(=O)(=O)Nc1ccc(F)c(C(=O)c2c[nH]c3ncc(Br)nc23)c1F`: the IC50 in test [2] and in test [3] was not above 10 µM throughout.

As for `O=C(c1cccc(NS(=O)(=O)c2ccc(C(F)(F)F)cc2)c1F)c1c[nH]c2nccnc12`, the IC50 in test [1], in test [2] and in test [3] was not above 10 µM each time.

`CCCS(=O)(=O)Nc1ccc(F)c(C(=O)c2c[nH]c3ncc(C#N)nc23)c1F` gave a 50% inhibitory concentration (IC50) in test [5] not above 10 µM.

On to `CCCS(=O)(=O)Nc1ccc(F)c(C(=O)c2c[nH]c3ncc(-c4cnc(OC)nc4)nc23)c1F`, for which the half-maximal inhibitory concentration (IC50) in test [1], in test [2] and in test [3] was not above 10 µM throughout.

For orientation: IC50 means the midpoint of a concentration-inhibition curve.
